Experiments:
[1] = Artificial light stability of dyed fabrics (colour fastness, ΔE); format: physicochemical; details: for ΔE: before vs after LED lamp, room temperature, 16 h
Protocol: (§1) In order to assess the stability and colour fastness of violacein and violacein derivatives dyed onto fabrics, dyed fabrics were subjected to a number of conditions. Fabrics were dyed according to Example 18 and colour coordinates and colour change before and after exposure to a given condition were determined as described in Example 18. To measure temperature stability, fabrics were incubated in an oven set to 80° c. for 4 h. To measure stability under acid and alkaline conditions, fabrics were fully submerged in water solutions set to pH 8 with NaOH and pH 5 with HCl and incubated at room temperature for 30 minutes. Fabrics were then incubated at 37° c. for 4 h. To measure stability during laundering, fabrics were washed at 30° c. under the “mix” setting of a Siemens IQ300 washing machine, then dried in a Siemens IQ300 dryer until dry. To measure artificial light stability, fabrics were placed under an LED lamp at room temperature for 16 h. To measure UV light stability, fabrics were placed under a UV lamp at room temperature for 1 h.

[2] = UV absorption capability (absorbance maxima, UV-A, UV-B, UV-C absorption) by HPLC; format: physicochemical
[3] = Temperature stability of dyed fabrics (colour fastness, ΔE); format: physicochemical; details: oven 80° c. for 4 h; for ΔE: before and after the stability test
Protocol: as §1

S. cerevisiae S228c = assay: Antimicrobial activity of dyed Nylon 6,6 fabric: final OD600 and % inhibition; format: cell-based
E. coli DH5a = assay: as above; format: cell-based
[4] = Acrylic, after test (LED lamp, room temperature, 16 h)
[5] = Bleached cotton, after test (LED lamp, room temperature, 16 h)
[6] = Diacetate, after test (LED lamp, room temperature, 16 h)
[7] = Nylon 6,6, after test (LED lamp, room temperature, 16 h)
[8] = Polyester, after test (LED lamp, room temperature, 16 h)
[9] = Wool, after test (LED lamp, room temperature, 16 h)

Question: Which L [1, 4] does the source give for O=C1N=C(c2c[nH]c3ccc(O)cc23)C=C1c1c[nH]c2ccccc12 [proviolacein] here?
Answer: 58.47

Question: And the a [1, 4]?
Answer: −0.05

Question: And the b [1, 4]?
Answer: 2.76

Question: And the L ([1]; Acrylic, before test)?
Answer: 56.17

Question: What about the a ([1]; Acrylic, before test) of the same molecule?
Answer: −0.68

Question: What about the b ([1]; Acrylic, before test) of the same molecule?
Answer: 3.21

Question: And the ΔE ([1]; Acrylic)?
Answer: 2.43

Question: And the L [1, 5]?
Answer: 62.69

Question: And the a [1, 5]?
Answer: 3.04

Question: And the b [1, 5]?
Answer: 3.55

Question: What about the L ([1]; Bleached cotton, before test) of the same molecule?
Answer: 58.83

Question: What about the a ([1]; Bleached cotton, before test) of the same molecule?
Answer: −0.52

Question: What about the b ([1]; Bleached cotton, before test) of the same molecule?
Answer: 4.04

Question: And the ΔE ([1]; Bleached cotton)?
Answer: 5.27

Question: And the L [1, 6]?
Answer: 63.43

Question: And the a [1, 6]?
Answer: 4.56

Question: And the b [1, 6]?
Answer: 7.02

Question: And the L ([1]; Diacetate, before test)?
Answer: 56.45

Question: And the a ([1]; Diacetate, before test)?
Answer: 3.46

Question: What about the b ([1]; Diacetate, before test) of the same molecule?
Answer: 5.75

Question: What about the ΔE ([1]; Diacetate) of the same molecule?
Answer: 7.18

Question: What about the L [1, 7] of the same molecule?
Answer: 51.07

Question: What about the a [1, 7] of the same molecule?
Answer: −0.68

Question: And the b [1, 7]?
Answer: −2.49

Question: And the L ([1]; Nylon 6,6, before test)?
Answer: 47.03

Question: And the a ([1]; Nylon 6,6, before test)?
Answer: −1.98

Question: And the b ([1]; Nylon 6,6, before test)?
Answer: −2.52

Question: What about the ΔE ([1]; Nylon 6,6) of the same molecule?
Answer: 4.24

Question: What about the L [1, 8] of the same molecule?
Answer: 65.01

Question: And the a [1, 8]?
Answer: −0.35

Question: What about the b [1, 8] of the same molecule?
Answer: 1.74

Question: What about the L ([1]; Polyester, before test) of the same molecule?
Answer: 59.49

Question: What about the a ([1]; Polyester, before test) of the same molecule?
Answer: −1.38

Question: And the b ([1]; Polyester, before test)?
Answer: 2.13

Question: And the ΔE ([1]; Polyester)?
Answer: 5.63

Question: And the L [1, 9]?
Answer: 67.51

Question: And the a [1, 9]?
Answer: −0.15

Question: And the b [1, 9]?
Answer: 6.46

Question: What about the L ([1]; Wool, before test) of the same molecule?
Answer: 65.25

Question: And the a ([1]; Wool, before test)?
Answer: −0.55

Question: And the b ([1]; Wool, before test)?
Answer: 5.71

Question: What about the ΔE ([1]; Wool) of the same molecule?
Answer: 2.41

Question: What about the “UV absorption capability in the UV-B region” value ([2]; 305 nm) of the same molecule?
Answer: particularly high

Question: And the “Total UV absorption UV C (245 nm)” value ([2]; AUC of HPLC peak at 245 nm per mM)?
Answer: 3142.9 (mAU · min)/mM

Question: And the “Total UV absorption UV B (305 nm)” value ([2]; AUC of HPLC peak at 305 nm per mM)?
Answer: 4097.7 (mAU · min)/mM

Question: And the “Total UV absorption UV A (360 nm)” value ([2]; AUC of HPLC peak at 360 nm per mM)?
Answer: 0 (mAU · min)/mM

Question: And the L ([3]; Acrylic, After test)?
Answer: 58.24

Question: And the a ([3]; Acrylic, After test)?
Answer: −0.6

Question: And the b ([3]; Acrylic, After test)?
Answer: 1.57

Question: And the L ([3]; Acrylic, Before test)?
Answer: 56.45

Question: What about the a ([3]; Acrylic, Before test) of the same molecule?
Answer: −2.01

Question: And the b ([3]; Acrylic, Before test)?
Answer: 2.1

Question: And the ΔE ([3]; Acrylic)?
Answer: 2.34

Question: And the L ([3]; Bleached cotton, After test)?
Answer: 61.95

Question: What about the a ([3]; Bleached cotton, After test) of the same molecule?
Answer: 1.2

Question: What about the b ([3]; Bleached cotton, After test) of the same molecule?
Answer: 2.46

Question: What about the L ([3]; Bleached cotton, Before test) of the same molecule?
Answer: 62.46

Question: And the a ([3]; Bleached cotton, Before test)?
Answer: 0.6

Question: What about the b ([3]; Bleached cotton, Before test) of the same molecule?
Answer: 2.51

Question: And the ΔE ([3]; Bleached cotton)?
Answer: 0.79

Question: And the L ([3]; Diacetate, After test)?
Answer: 59.98

Question: And the a ([3]; Diacetate, After test)?
Answer: 5.39

Question: And the b ([3]; Diacetate, After test)?
Answer: 6.04

Question: What about the L ([3]; Diacetate, Before test) of the same molecule?
Answer: 61.94

Question: What about the a ([3]; Diacetate, Before test) of the same molecule?
Answer: 4.17

Question: And the b ([3]; Diacetate, Before test)?
Answer: 5.25

Question: And the ΔE ([3]; Diacetate)?
Answer: 2.44

Question: What about the L ([3]; Nylon 6,6, After test) of the same molecule?
Answer: 49.91

Question: What about the a ([3]; Nylon 6,6, After test) of the same molecule?
Answer: −1.59

Question: What about the b ([3]; Nylon 6,6, After test) of the same molecule?
Answer: −4

Question: What about the L ([3]; Nylon 6,6, Before test) of the same molecule?
Answer: 50.83

Question: What about the a ([3]; Nylon 6,6, Before test) of the same molecule?
Answer: −2.09

Question: And the b ([3]; Nylon 6,6, Before test)?
Answer: −3.92

Question: What about the ΔE ([3]; Nylon 6,6) of the same molecule?
Answer: 1.05

Question: What about the L ([3]; Polyester, After test) of the same molecule?
Answer: 62.77

Question: And the a ([3]; Polyester, After test)?
Answer: −0.52

Question: What about the b ([3]; Polyester, After test) of the same molecule?
Answer: 1.37

Question: And the L ([3]; Polyester, Before test)?
Answer: 64.1

Question: What about the a ([3]; Polyester, Before test) of the same molecule?
Answer: −1.81

Question: What about the b ([3]; Polyester, Before test) of the same molecule?
Answer: 1.31

Question: What about the ΔE ([3]; Polyester) of the same molecule?
Answer: 1.85

Question: What about the L ([3]; Wool, After test) of the same molecule?
Answer: 64.23

Question: What about the a ([3]; Wool, After test) of the same molecule?
Answer: 0.18

Question: What about the b ([3]; Wool, After test) of the same molecule?
Answer: 4.96

Question: And the L ([3]; Wool, Before test)?
Answer: 65.67

Question: And the a ([3]; Wool, Before test)?
Answer: −0.22

Question: And the b ([3]; Wool, Before test)?
Answer: 4.25

Question: What about the ΔE ([3]; Wool) of the same molecule?
Answer: 1.65

Question: And the “Final OD600” value (S. cerevisiae S228c; S. cerevisiae cultured overnight at 30° c. with dyed Nylon 6,6 fabric strip, starting OD600 0.1)?
Answer: 4.39

Question: What about the “% Inhibition” value (S. cerevisiae S228c; S. cerevisiae, dyed Nylon 6,6 fabric vs undyed fabric control) of the same molecule?
Answer: 18.13%

Question: And the “growth inhibition of S. cerevisiae” value (S. cerevisiae S228c; dyed Nylon 6,6 fabric strip in culture, overnight 30° c., OD600 versus undyed fabric)?
Answer: most inhibited

Question: And the “Final OD600” value (E. coli DH5a; E. coli cultured overnight at 30° c. with dyed Nylon 6,6 fabric strip, starting OD600 0.1)?
Answer: 4.52

Question: What about the “% Inhibition” value (E. coli DH5a; E. coli, dyed Nylon 6,6 fabric vs undyed fabric control) of the same molecule?
Answer: 13.33%

From patent publication US20260092179A1, “GENETICALLY MODIFIED HOST CELLS PRODUCING VIOLACEIN, ANALOGUES, AND DERIVATIVES THEREOF” (OCTARINE BIO APS, priority 2022, published 2026)
